Experimental data published in PMC9143880, “Improving Antimicrobial Activity and Physico-Chemical Properties by Isosteric Replacement of 2-Aminothiazole with 2-Aminooxazole” (Pharmaceuticals, 2022).
≈ marks a conversion by molar mass, not a printed value. Like-named read-outs stand apart in the source and are kept apart here.

Legend:
[1] = test system: Staphylococcus aureus subsp. aureus CCM 4223 (ATCC 29213); experiment: Antibacterial microdilution broth (EUCAST); type: cell-based; details: Staphylococcus aureus; 24h incubation; read-out: MIC SA
[2] = test system: Candida tropicalis CCM 8264 (ATCC 750); experiment: Antifungal microdilution broth (EUCAST); details: Candida tropicalis, 24 h, read-out: MIC CT
[3] = test system: Mycobacterium tuberculosis H37Ra ITM-M006710 (ATCC 9431); experiment: Antimycobacterial MIC, microdilution broth / Alamar Blue (resazurin); type: cell-based; details: Mycobacterium tuberculosis
HepG2 cells = experiment: HepG2 cytotoxicity screening (CellTiter 96); type: cell-based, human; details: for IC50: Homo sapiens, HepG2, 24 h, 24 h incubation, CellTiter 96, * above highest tested concentration, ** limited by insolubility in medium; for SI: SI = IC50 (µM) HepG2 / MICH37Ra (µM)
[4] = test system: Candida albicans CCM 8320 (ATCC 24433); experiment: Antifungal microdilution broth (EUCAST); details: Candida albicans, 24 h, read-out: MIC CA
[5] = test system: Pseudomonas aeruginosa CCM 3955 (ATCC 27853); experiment: Antibacterial microdilution broth (EUCAST); type: cell-based; details: Pseudomonas aeruginosa; 72h incubation; read-out: MIC PA
[6] = test system: Aspergillus flavus CCM 8363; experiment: Antifungal microdilution broth (EUCAST); details: Aspergillus flavus, CCM8363, 24 h, read-out: MIC AFla
[7] = test system: Staphylococcus epidermidis CCM 4418 (ATCC 12228); experiment: Antibacterial microdilution broth (EUCAST); type: cell-based; details: Staphylococcus epidermidis; 24h incubation; read-out: MIC SE
[8] = test system: M. smegmatis DSM 43465 (ATCC 607); experiment: Antimycobacterial MIC, microdilution broth / resazurin; type: cell-based; details: Mycolicibacterium smegmatis; resazurin after 48 h; read-out: MIC M. smegmatis
[9] = test system: Candida parapsilosis CCM 8260 (ATCC 22019); experiment: Antifungal microdilution broth (EUCAST); details: Lodderomyces parapsilosis, 24 h, read-out: MIC CP
[10] = test system: Lichtheimia corymbifera CCM 8077; experiment: Antifungal microdilution broth (EUCAST); details: Lichtheimia corymbifera, CCM8077, 24 h, read-out: MIC LC
[11] = Kinetic water solubility (water-induced precipitation of DMSO stock, UHPLC); type: physicochemical; details: for solubility: water (DMSO stock diluted with water), 18 °C, kinetic from dmso stock
Excerpt: A low value of log P is often presumed to be related to increased water solubility, although this might not always be the case since log P is a measure of relative solubility of the compound in the lipophilic and hydrophilic solvents (at equilibrium). Therefore, to be sure, we tested whether the lowered log k’w (related to log P) of the oxazole derivatives would also translate to increased solubility in water in a few representative derivatives. The water solubility of selected compounds was assessed by the kinetic method based on water-induced precipitation of DMSO stock solutions of tested compounds due to reasons described by Azzali and colleagues.
Water solubility was investigated using the kinetic solubility method. The sample (1 mg) was dissolved in the smallest amount of DMSO needed, 25 or 50 μL for subtype I and subtype II compounds, respectively. The samples were mixed at 18 °C in a thermomixer (Thermomixer comfort, Eppendorf, Hamburg, Germany) for 1 h. After mixing, the samples were diluted with water to a concentration of 500 μM, and the precipitate was observed. The sample was filtered through a 0.22 μm filter and diluted to be evaluated by UHPLC. The log S parameter was calculated from the experimental solubility in molar concentration. The samples were measured using the same instrument, software, and column as used in the purity evaluation.

[12] = test system: M. aurum DSM 43999 (ATCC 23366); experiment: Antimycobacterial MIC, microdilution broth / resazurin; type: cell-based; details: Mycolicibacterium aurum, read-out: MIC M. aurum
[13] = test system: Acinetobacter baumannii DSM 30007 (ATCC 19606); experiment: Antibacterial microdilution broth (EUCAST); type: cell-based; details: Acinetobacter baumannii; 24h incubation; read-out: MIC AB
[14] = test system: Aspergillus fumigatus ATCC 204305; experiment: Antifungal microdilution broth (EUCAST); details: Aspergillus fumigatus, ATCC204305, 24 h, read-out: MIC AF
[15] = test system: Escherichia coli CCM 3954 (ATCC 25922); experiment: Antibacterial microdilution broth (EUCAST); type: cell-based; details: Escherichia coli; 24h incubation; read-out: MIC EC
[16] = test system: Staphylococcus aureus subsp. aureus (MRSA) CCM 4750 (ATCC 43300); experiment: Antibacterial microdilution broth (EUCAST); type: cell-based; details: Staphylococcus aureus; 24h incubation; read-out: MIC MRSA
[17] = RP-UHPLC lipophilicity parameter log k’w; type: physicochemical; details: for log k’w: RP-UHPLC, acetonitrile/water, log k extrapolated to 0% acetonitrile; for logkw: experimental lipophilicity parameter
Method in brief: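 Retention was measured once per eluent composition: subtype I at 40/45/50% and subtype II at 20/30/40% acetonitrile in water, isocratic RP-UHPLC. log k values from these runs gave the lipophilicity index log k’w.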

[18] = test system: Trichophyton interdigitale CCM 8377 (ATCC 9533); experiment: Antifungal microdilution broth (EUCAST); details: Trichophyton interdigitale, 72 h, read-out: MIC TI
[19] = test system: Candida krusei CCM 8271 (ATCC 6258); experiment: Antifungal microdilution broth (EUCAST); details: Pichia kudriavzevii, 24 h, read-out: MIC CK
[20] = test system: Enterococcus faecalis CCM 4224 (ATCC 29212); experiment: Antibacterial microdilution broth (EUCAST); type: cell-based; details: Enterococcus faecalis; 24h incubation; read-out: MIC EF
[21] = test system: M. avium DSM 44156 (ATCC 25291); experiment: Antimycobacterial MIC, microdilution broth / resazurin; type: cell-based, Mycobacterium avium; details: Mycobacterium avium; resazurin after 96 h; read-out: MIC M. avium
[22] = test system: M. kansasii DSM 44162 (ATCC 12478); experiment: as above; type: cell-based; details: Mycobacterium kansasii, read-out: MIC M. kansasii
Mtb laboratory ID IZAK = type: cell-based, Mycobacterium tuberculosis; details: MDR strain IZAK, CLSI breakpoints 2020
Mtb laboratory ID MATI = type: cell-based, Mycobacterium tuberculosis; details: MDR strain MATI, CLSI breakpoints 2021
[23] = 120 h, Middlebrook 7H9, resazurin after 120 h, read-out: Mtb H37Ra MIC
[24] = calculated from experimentally measured water solubility in molar concentration, read-out: Exp. log S (converted)
[25] = water, kinetic method, DMSO stock diluted to 500 μM, read-out: Solubility
[26] = recalculated from µg/mL, read-out: MICH37Ra

| Compound | MIC [1] [µM] | MIC [2] [µM] | MIC [3, 23] [µg/mL] | IC50 (HepG2 cells) [µM] | MIC [4] [µM] | MIC [5] [µM] | MIC [6] [µM] | MIC [7] [µM] | MIC [8] [µg/mL] | MIC [9] [µM] | MIC [10] [µM] | MIC [13] [µM] | MIC [14] [µM] | MIC [15] [µM] | MIC [16] [µM] | log k’w [17] | logkw [17] | MIC [18] [µM] | MIC [19] [µM] | MIC [20] [µM] | other results |
| --- | --- | --- | --- | --- | --- | --- | --- | --- | --- | --- | --- | --- | --- | --- | --- | --- | --- | --- | --- | --- | --- |
| O=C(Nc1ncco1)c1cccnc1 [Compound 2b] | 250 (≈ 47.3 µg/mL) | > 500 | 31.2 | > 1000 | 500 (≈ 94.6 µg/mL) | > 500 | > 500 | 500 (≈ 94.6 µg/mL) | 62.5 (≈ 330 µM) | 250 (≈ 47.3 µg/mL) | > 500 | > 500 | > 500 | > 500 | 500 (≈ 94.6 µg/mL) | 0.436 | 0.4358 | 125 (≈ 23.6 µg/mL) | 500 (≈ 94.6 µg/mL) | > 500 | logS_exp ([11]; experimental log S): -0.9171; MIC ([12]; resazurin after 72 h): 15.6 µg/mL (≈ 82.6 µM); melting point: 155 to 160 °C |
| O=C(Nc1nccs1)c1ccnc(Cl)c1 [Compound 6a] | > 500 | > 500 | ≥ 500 | > 250 | > 500 | > 500 | > 500 | > 500 | ≥ 500 | > 500 | > 500 | > 500 | > 500 | > 500 | > 500 | 2.013 | 2.013 | > 500 | > 500 | > 500 | solubility [11, 24]: 126 µM; solubility [11, 25]: 29.9 µg/mL; MIC ([12]; resazurin after 72 h): ≥ 500 µg/mL; MIC [21]: ≥ 500 µg/mL; melting point: 152 to 154 °C; MIC ([22]; resazurin after 96 h): ≥ 500 µg/mL |
| O=C(Nc1nc(-c2ccccc2)cs1)c1ccnc(Cl)c1 [Compound 15a] | > 500 | > 125 | 3.91 | 103 | > 125 | > 500 | > 125 | > 500 | 15.6 (≈ 49.5 µM) | > 125 | > 125 | > 500 | > 125 | > 500 | > 500 | 3.036 | 3.036 | > 125 | > 125 | > 500 | MIC [3, 26]: 12.4 µM; SI (HepG2 cells): 8.3; solubility [11, 24]: 6.61 µM; solubility [11, 25]: 2.1 µg/mL; MIC ([12]; resazurin after 72 h): 31.2 µg/mL (≈ 99 µM); MIC [21]: 15.6 µg/mL (≈ 49.5 µM); melting point: 158 to 162 °C; MIC ([22]; 96 h): < 3.91 µg/mL |
| O=C(Nc1nc(-c2ccccc2)co1)c1ccnc(Cl)c1 [Compound 15b] | 62.5 (≈ 18.7 µg/mL) | 500 (≈ 150 µg/mL) | 7.81 | 136 | 500 (≈ 150 µg/mL) | > 500 | > 500 | 250 (≈ 74.9 µg/mL) | 31.2 (≈ 104 µM) | 500 (≈ 150 µg/mL) | > 500 | 500 (≈ 150 µg/mL) | > 500 | > 500 | 62.5 (≈ 18.7 µg/mL) | 1.992 | 1.992 | 500 (≈ 150 µg/mL) | 500 (≈ 150 µg/mL) | 250 (≈ 74.9 µg/mL) | MIC [3, 26]: 26.1 µM; SI (HepG2 cells): 5.2; solubility [11, 24]: 417 µM; solubility [11, 25]: 124 µg/mL; MIC ([12]; 72 h): 7.81 µg/mL (≈ 26.1 µM); MIC [21]: 15.6 µg/mL (≈ 52.1 µM); MIC ([22]; resazurin after 96 h): 15.6 µg/mL (≈ 52.1 µM) |
| NC(=O)c1cnccn1 [PZA, pyrazinamide] |  |  |  |  |  |  |  |  |  |  |  |  |  |  |  |  |  |  |  |  | Concentration (susceptibility profile) (Mtb laboratory ID IZAK): > 16 µg/mL; Susceptibility (Mtb laboratory ID IZAK): resistant; Concentration (susceptibility profile) (Mtb laboratory ID MATI): > 128 µg/mL; Susceptibility (Mtb laboratory ID MATI): resistant |
| [H]/N=C(/N)N[C@H]1[C@H](O)[C@@H](O)[C@H](O[C@@H]2O[C@@H](C)[C@](O)(C=O)[C@H]2O[C@@H]2O[C@@H](CO)[C@H](O)[C@@H](O)[C@@H]2NC)[C@@H](N/C(N)=N\[H])[C@@H]1O [STM, streptomycin] |  |  |  |  |  |  |  |  |  |  |  |  |  |  |  |  |  |  |  |  | Concentration (susceptibility profile) (Mtb laboratory ID IZAK): 4 µg/mL; Susceptibility (Mtb laboratory ID IZAK): resistant; Concentration (susceptibility profile) (Mtb laboratory ID MATI): > 16 µg/mL; Susceptibility (Mtb laboratory ID MATI): resistant |
